# According to patent publication US20140221499A1, “NOVEL RODENT CONTROL AGENTS AND USES THEREOF” (priority 2011, published 2014):
# Experiments:
# [1] = test system: mouse olfactory sensory neurons; assay: Confocal calcium imaging of olfactory sensory neurons in tissue slices; assay type: cell-based
# Experimental: The mammalian olfactory system encodes odor identity using combinations of olfactory receptors (11). […] Here, we used a confocal imaging strategy to record cytosolic calcium transients of single sensory neurons in real time. Viability of analyzed neurons was determined after odor exposures by KCl-induced depolarization.
# Confocal calcium imaging of olfactory sensory neurons in tissue slices. Recordings were performed as described (Spehr M, et al. (2006) Essential role of the main olfactory system in social recognition of major histocompatibility complex peptide ligands. J Neurosci 26(7):1961-1970) with the following modifications. For calcium sensitive dye loading, slices of olfactory epithelium were incubated (30 min, 4° C.) in HEPES solution (in mM: 145 NaCl, 5 KCl, 1 CaCl2, 1 MgCl2, 10 HEPES; pH=7.3) containing Fluo-4/AM (2 μM; Molecular Probes). Slices were transferred to a recording chamber (Slice Mini Chamber, Luigs & Neumann, Ratingen, Germany) and visualized using a Leica DM6000CFS confocal fixed stage upright microscope (Leica Microsystems, Mannheim, Germany) equipped with an apochromatic water immersion objective (HC X APO L20x/1.0 W) and infrared-optimized differential interference contrast (DIC) optics. Slices were anchored via stainless steel wires with 0.1 mm lycra threads and continuously superfused with HEPES-buffered solution. Changes in cytosolic calcium were monitored over time at 1.0 Hz frame rate. Stimulus application as well as solution exchange during inter-stimulus intervals was achieved by a custom-made, pressure-driven focal application device consisting of a software-controlled valve bank connected to a 7-in-1 ‘perfusion pencil’. Rhodamine application controlled for uniform flow and even stimulus application throughout the epithelial sensory surface. Offline analysis of time-lapse experiments was performed using LAS-AF software (Leica). All cells in a given field of view were marked as individual regions of interest (ROIs), and the relative fluorescence intensity for each ROI was calculated and processed as a function of time.
# [2] = target: T1, rTAAR7d (Rattus norvegicus, UniProt Q923X5); assay: CRE-SEAP reporter gene assay in HEK293 cells transfected with rTAAR7d; assay type: cell-based; parameters: Full Taar coding regions were cloned into pcDNA3.1; expressed in transfected cells; host or cells: HEK293; details: FIG. 11A, functional with or without 'Rho tag', EC50 ± s.e.m., 4-parameter Hill equation
# T1 sequence (Q923X5 1-358): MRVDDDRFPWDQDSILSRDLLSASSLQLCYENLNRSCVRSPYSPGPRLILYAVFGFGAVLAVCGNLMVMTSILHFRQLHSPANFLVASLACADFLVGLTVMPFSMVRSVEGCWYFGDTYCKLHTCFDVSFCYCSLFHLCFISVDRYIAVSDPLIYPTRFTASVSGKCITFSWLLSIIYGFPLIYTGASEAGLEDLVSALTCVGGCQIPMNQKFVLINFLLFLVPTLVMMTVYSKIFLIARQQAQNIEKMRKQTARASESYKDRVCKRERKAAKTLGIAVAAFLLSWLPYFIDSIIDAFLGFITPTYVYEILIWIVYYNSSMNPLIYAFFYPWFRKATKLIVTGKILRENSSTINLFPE
# Experimental: FIG. 11 illustrates the dose-dependent responses of TAARs to amines. HEK293 cells were cotransfected with plasmids encoding CRE-SEAP and rTAARs (a) or mTAARs (b), incubated with concentrations of ligands indicated, and assayed for reporter activity (triplicates±s.d.). EC50 values (±s.e.m, bottom right) were calculated using SigmaPlot (Systat Software) and a 4-parameter Hill equation.
# The following mixes (10 μM of each indicated compounds) were tested for their ability to activate rat TAARs. Mix 1: butylamine, dibutylamine, hexylamine. Mix 2: 2-aminopentane, isoamylamine, isobutylamine, isopropylamine. Mix 3: N,N-dimethylcyclohexylamine, 1-methylindole, tryptamine, phenylethylamine. Mix 4: indole, 1-methylpyrrolidine, 1-methylpiperidine, pyrrolidine. […]
# Full Taar coding regions were cloned into pcDNA3.1-(Invitrogen) with or without a 5′ DNA extension of 69 bp encoding the first 20 amino acids of bovine rhodopsin followed by a cloning linker ([…]). […] Fluorescence was measured on an EnVision plate reader (Perkin Elmer) and SEAP activity graphed as relative fluorescence of a phosphatase substrate.
# Here, we set out to identify agonists for additional mouse and rat TAARs. […] Transfected cells were incubated with test chemicals, and phosphatase activity was quantified with a fluorescent substrate as a reporter for TAAR activation. […]
Compound,activation of olfactory sensory neurons ([1]; dorsal and ventral olfactory epithelium),2-phenylethylamine-responsive neurons activated by all four test stimuli ([1]; dorsal olfactory epithelium),2-phenylethylamine-responsive neurons distinguishing lion and giraffe urine and not responding to benzylamine ([1]; of 2-phenylethylamine-responsive neurons (13/52)) [%],2-phenylethylamine-responsive neurons distinguishing lion and giraffe urine and not responding to benzylamine ([1]; of all dorsal KCl-responsive neurons (13/1268)) [%],EC50 [2] [µM]
NCCc1ccccc1 [2-phenylethylamine],activated a subset of KCl-responsive olfactory sensory neurons,30/52,25,~1,–
"CN(C)C1CCCCC1 [N,N-DIMETHYLCYCLOHEXYLAMINE, N,N-dimethylcyclohexylamine]",–,–,–,–,4.6 ± 1.1
